According to patent US5688488A, “Composition and method for tumor imaging” (priority 1995, dated 1997):

Legend:
physchem = assay type: physicochemical; settings: water
Experimental: The crude product contained a mixture of folate-deferoxamine conjugates, wherein the folate is linked to DF via its α-carboxyl or γ-carboxyl group as well as unreacted folic acid. The two isomers of DF-folate were isolated and purified on a weak anion-exchange column. Briefly, the product mixture was loaded onto a 1.5 cm×15 cm […] column pre-equilibrated in 10 mM NH4 CO3 buffer (pH 7.9). The column was washed with 50 mL 10 mM NH4 HCO3 and then eluted with a 500 mL gradient of 80-180 mM NH4 HCO3 followed by 150 mL 500 mM NH4 HCO3. Three folate-containing peaks were obtained as detected by UV absorbance at 363 nm. Each peak was collected, lyophilized, and redissolved in deionized water. The purity of each component was confirmed by reverse-phase high pressure liquid chromatography (HPLC) with a 10 mm×250 mm Licrosorb RP-18 column (Altech, Deerfield, Ill.), and evaluation of the conjugates' molecular weights was determined by fast-atom bombardment mass spectroscopy (FAB-MS). The characteristic pKa values of the two DF-folate isomers were obtained by titration on a pH/ion analyzer (Corning, Corning, N.Y.). […] Since the two isoforms of DF-folate conjugate retain either a free γ-carboxyl or free α-carboxyl, they can be distinguished from each other and from unreacted folic acid by their characteristic pKa values, which were determined by titration.

[1] = target: T1, KB cell folate-binding protein (Homo sapiens, UniProt P15328); assay: Competitive binding assay using [^3 H]folic acid on KB cells; settings: equimolar amount (100 pmoles each), 30 min, 4° C.
T1 construct: endogenous in cells; host or cells: KB cells
T1 sequence (P15328 25-257): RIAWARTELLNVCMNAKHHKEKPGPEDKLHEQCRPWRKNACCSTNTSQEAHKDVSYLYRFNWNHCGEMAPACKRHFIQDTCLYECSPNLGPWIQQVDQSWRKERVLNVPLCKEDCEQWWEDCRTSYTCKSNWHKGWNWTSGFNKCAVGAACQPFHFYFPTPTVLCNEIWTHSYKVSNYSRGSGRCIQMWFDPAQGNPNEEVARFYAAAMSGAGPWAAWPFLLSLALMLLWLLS
Experimental: (§1) Cell Culture. KB cells, a human nasopharyngeal epidermal carcinoma cell line that greatly overexpresses the folate binding protein, were cultured continuously as a monolayer at 37° C. in a humidified atmosphere containing 5% CO2 in folate-deficient modified Eagle's medium (FDMEM) (a folate-free modified Eagle's medium supplemented with 10% (v/v) heat-inactivated fetal calf serum as the only source of folate) containing penicillin (50 units/mL), streptomycin (50 μg/mL), and 2 mM L-glutamine. The final folate concentration in the complete FDMEM is the physiological range (~2 nM). 48 h prior to each experiment, the cells were transferred to 35 mm culture dishes at 5×10^5 cells per dish and grown to ~80% confluent.
The affinity of the DF-folate(α) and DF-folate(γ) conjugates for the KB cell folate-binding protein was evaluated in a competitive binding assay using [^3 H]folic acid as the receptor ligand. Briefly, 100 pmoles of [^3 H]folic acid and 100 pmoles of either DF-folate(α) or DF-folate(γ) dissolved in phosphate-buffered saline (PBS) were added to KB cells grown ~80% confluence in 1 mL FDMEM in 35 mm culture dishes. Following a 30 min incubation at 4° C., the cells were washed 3 times with cold PBS. Cell-associated [^3 H] folic acid was then determined by liquid scintillation counting, and the cellular protein content was evaluated by the BCA protein assay.

KB cells [2] = assay: Uptake of ^67 Ga-DF-folate complex by cultured KB cells; assay type: cell-based, human; settings: for saturating level of cellular uptake, of the total radioactivity added: concentration dependence
Experimental: as §1
Because folate and its conjugates bind to cell surface receptors at 4° C., but are capable of endocytosis only at higher temperatures, it is possible to separately evaluate the kinetics of binding the internalization of folate by measuring the rates of folate conjugate uptake at the two temperatures. […] By the end of the 30 min incubation, binding approached to saturation with ~18% of the initial radioactivity found associated with a cell surface.
Incubation at 37° C., a temperature which permits both binding and endocytosis, yielded similar kinetic results, however, maximal uptake reached 32% of the total conjugate added. Presumably, the difference in magnitude of the two cellular uptake curves reflects the ability of the folate receptor to internalize the conjugate and then recycle to the cell surface in its unoccupied form. […] This latter result is consistent with the inability of the α-conjugate to compete with free folate for the cell surface receptor.
To verify the involvement of a cell surface folate receptor in mediating the uptake of ^67 Ga-DF-folate(γ), binding and internalization of the complex were evaluated as a function of the complex's concentration. Cellular uptake of ^67 Ga-DF-folate(γ) was concentration dependent at both 4° C. and 37° C., saturating at levels of 20% and 35% of the total radioactivity added, respectively.

human KB cells tumors = assay type: in vivo, athymic mice; settings: 29.6 mg tumor; ~45 hours post-injection
Experimental: To test the tumor-cell-selective uptake of metal-labeled radiopharmaceuticals in vivo, ~180 μCi of ^67 Ga-deferoxamine-folate conjugate (See FIG. 3) was administered to two tumor-bearing athymic mice. Tumors were generated in athymic mice by subcutaneous injecting human KB cells into the dorsal-lateral region of the mice according to procedures familiar to those of ordinary skill in the art. After establishment of tumors in the mice, ~180 μCi of ^67 Ga-deferoxamine-folate conjugate was administered intravenously. Approximately 45 hours post-injection, gamma images were obtained and the tissue distribution of ^67 Ga quantitated.
To test the viability of the FBP-receptor as a pathway for achieving tumor-cell-selective uptake of metal-labeled radiopharmaceuticals in vivo, ~180 μCi of ^67 Ga-deferoxamine-folate conjugate was administered intravenously to two tumor-bearing athymic mice via the femoral vein nine days after subcutaneous injection of 4×10^6 human KB cells. At approximately 45 hours post-injection, gamma images were obtained, the animals were sacrificed and dissected, and the tissue distribution of tracer was quantified by gamma counting (after storage of the weighted tissue samples for decay to a suitable ^67 Ga count rate). […] The tumor to blood ratio was 1500 and 1185 and the tumor to muscle ratio was 170 and 288 for each respective mouse.

[3] = test system: Subcutaneous KB Cell Tumors
[4] = test system: membrane transport protein; settings: facilitated transport by membrane transport protein; cited from earlier work
[5] = target: membrane-bound folate-binding-protein receptor (FBP); settings: cited from earlier work
[6] = test system: Rat pheochromocytoma (PC-12) cells; assay: Rat pheochromocytoma cell uptake of biotin conjugated proteins, fluorescent microscope; assay type: cell-based; settings: 37° C., 5, 15 and 33 minutes
Experimental: Rat pheochromocytoma (PC-12) cells were obtained from America Type Culture Collection and were grown (37° C., 5% CO2 in humidified air) attached to plastic flasks for 2 to 3 weeks until confluent in a medium of 85% RMPI 1640, 10% v/v heat inactivated horse serum, and 5% fetal calf serum containing 1% streptomycin-penicillin.
Biotin and fluorescein labeled insulin was prepared.
The rat PC12 cells were grown in modified RMPI 1640 medium as a monolayer on the bottom of a culture flask. Before removing the cells, the monolayer was washed with a 20 ml portion of fresh Locke's solution. The cells were then displaced into 20 ml of the Locke's solution by gentle agitation with a stream Locke's solution. […] The tubes were allowed to incubate at 37° C. At intervals of 5, 15 and 33 minutes, 0.5 ml of each cell suspension was removed and pelleted at 10,000×g for 10 seconds. The cell pellet was washed and repelleted twice in 1 ml Locke's solution and then fixed by addition of 200 l of a 2% formalin solution in phosphate buffered saline. Thirteen microliters of the fixed cell suspension was then added to a microscope slide and viewed with the fluorescent microscope to detect internalized proteins.

[7] = 17 hours after intraperitoneal injection
human HeLa cells = assay: Uptake of ^125 I-labeled folate-labeled RNase by HeLa cells; assay type: cell-based
[8] = test system: KB cells (a human nasopharyngeal cell line); assay: Uptake of ^125 I-labeled folate-labeled protein by KB cells; assay type: cell-based
BHK cells = assay: Ribonuclease-riboflavin uptake by BHK cells; assay type: cell-based; settings: 10 μg/ml, various times (FIG. 4)
KB cells [9] = assay: Visualization of ribonuclease endocytosis by KB cells using a confocal microscope; assay type: cell-based, human; settings: 60 minute incubation
Experimental: RNase labeled only with fluoroscein was used as a control. Following extensive dialysis against growth medium, the control and folate-labeled RNase samples were added to separate cultures of KB cells. After 60 minute incubation, the cells were thoroughly washed and examined for uptake. […] Furthermore, using the confocal's capability of focusing on a single horizontal plane in each cultured cell, it was readily evident that vesicles filled with the fluorescent-labeled, folate-bound ribonuclease were forming on all regions of the cell surface, pinching off via endocytosis into the interior, and entering the cytoplasm. The vesicles, measuring […] across, were easily large enough to accommodate large biomolecules such as proteins and DNA plasmids.

[10] = test system: white blood cells in whole human blood; settings: 37° C., 2 hours
Experimental: Fluorescein-labeled RNase was either conjugated to folate or left unmodified (control) following the same general procedure set forth in Example 19. The folate-conjugated and control samples were then added to freshly drawn whole human blood, incubated at 37° C. for 2 hours and then washed thoroughly and examined under the fluorescence microscope.

CC(=O)N(O)CCCCCNC(=O)CCC(=O)N(O)CCCCCNC(=O)CCC(=O)N(O)CCCCCNC(=O)[C@H](CCC(=O)O)NC(=O)c1ccc(NCc2cnc3nc(N)[nH]c(=O)c3n2)cc1 [DF-folate(α)]
pKa (physchem; pKa): 2.5 | decrease in bound [^3 H]folic acid [1]: no ability to compete

CC(=O)N(O)CCCCCNC(=O)CCC(=O)N(O)CCCCCNC(=O)CCC(=O)N(O)CCCCCNC(=O)CC[C@H](NC(=O)c1ccc(NCc2cnc3nc(N)[nH]c(=O)c3n2)cc1)C(=O)O [DF-folate(γ)]
pKa (physchem; pKa): 4.5 | decrease in bound [^3 H]folic acid [1]: 50%

CC(=O)N([O-])CCCCCNC(=O)CCC(=O)N([O-])CCCCCNC(=O)CCC(=O)N([O-])CCCCCNC(=O)CCC(NC(=O)c1ccc(NCc2cnc3nc(N)[nH]c(=O)c3n2)cc1)C(=O)O.[67Ga+3] (stereo not drawn) [^67 Ga-DF-Folate]
time to half maximal binding (KB cells [2]; 4° C.): ~ 3 min | saturating level of cellular uptake, of the total radioactivity added (KB cells [2]; 4° C.): 20% | initial radioactivity associated with cell surface (KB cells [2]; 4° C., end of 30 min incubation): ~ 18% | maximal uptake, of the total conjugate added (KB cells [2]; 37° C.): 32% | saturating level of cellular uptake, of the total radioactivity added (KB cells [2]; 37° C.): 35% | initial cellular uptake retained (KB cells [2]; 100-fold molar excess of free folate): 0.5% | decrease in uptake (KB cells [2]; equimolar unlabeled folic acid): 50% | detection of tumor by gamma scintigraphy (human KB cells tumors): readily detected by gamma scintigraphy | imaging of tumors in vivo with a gamma camera ([3]; 8 mm tumors): 8 mm tumors were easily imaged in vivo | Tumor-to-Non-target Ratio: Tumor/blood ([3]; mouse, in vivo, iv, 270 min): 48 ± 5 | Tumor-to-Non-target Ratio: Tumor/kidney ([3]; mouse, in vivo, iv, 270 min): 1.4 ± 0.5 | Tumor-to-Non-target Ratio: Tumor/liver ([3]; mouse, in vivo, iv, 270 min): 5.1 ± 0.5 | Tumor-to-Non-target Ratio: Tumor/muscle ([3]; mouse, in vivo, iv, 270 min): 82 ± 16 | Percentage of Injected Dose per Gram of Tissue: Blood ([3]; mouse, in vivo, iv, 4.5 h): 0.046 ± 0.009 % of injected dose per gram | Percentage of Injected Dose per Gram of Tissue: Heart ([3]; mouse, in vivo, iv, 4.5 h): 0.025 ± 0.005 % of injected dose per gram | Percentage of Injected Dose per Gram of Tissue: Kidney ([3]; mouse, in vivo, iv, 4.5 h): 1.79 ± 0.82 % of injected dose per gram | Percentage of Injected Dose per Gram of Tissue: Liver ([3]; mouse, in vivo, iv, 4.5 h): 0.43 ± 0.03 % of injected dose per gram | Percentage of Injected Dose per Gram of Tissue: Lungs ([3]; mouse, in vivo, iv, 4.5 h): 0.052 ± 0.010 % of injected dose per gram | Percentage of Injected Dose per Gram of Tissue: Muscle ([3]; mouse, in vivo, iv, 4.5 h): 0.028 ± 0.005 % of injected dose per gram | Percentage of Injected Dose per Gram of Tissue: Tumor ([3]; mouse, in vivo, iv, 4.5 h): 2.22 ± 0.36 % of injected dose per gram

Nc1nc2ncc(CNc3ccc(C(=O)N[C@@H](CCC(=O)O)C(=O)O)cc3)nc2c(=O)[nH]1 [folic acid, Folic acid, reference compound]
pKa (physchem; pKa1): 2.5 | pKa (physchem; pKa2): 4.5 | Km [4]: 1.5 µM | Ka [5]: 500 pM

fluorescein labeled insulin: non-biotinylated fluorescein labeled insulin, control
cellular internalization (fluorescent microscope) [6]: No evidence of internalization

B1: RNase-Folate: ^125 I bovine ribonuclease with 12-14 covalently bound folates per protein molecule (conjugate, UniProt P61823 27-150, looked up)
Ribonuclease pancreatic: KETAAAKFERQHMDSSTSAASSSNYCNQMMKSRNLTKDRCKPVNTFVHESLADVQAVCSQKNVACKNGQTNCYQSYSTMSITDCRETGSSKYPNCAYKTTQANKHIIVACEGNPYVPVHFDASV
modifications: 125I label; 12-14 folates
brain tissue uptake (delivery across the blood/brain barrier) [7]: brain tissue's preferential uptake of the folate-labeled protein | uptake by HeLa cells (human HeLa cells): corresponding results | reduction of uptake by competitive inhibition ([8]; 100-fold molar excess of unligated folate): 7 fold | molecules per cell internalized ([8]; KB cells, after 30 minutes): 10^7 molecules per cell

B2: RNase A-Rf (6): ^125 I ribonuclease derivatized with 6 riboflavins per protein (conjugate, UniProt P61823 27-150, looked up)
Ribonuclease pancreatic: B1 Ribonuclease pancreatic
modifications: 125I label; 6 riboflavins
notes: ^125 I ribonuclease derivatized with 6 riboflavins per protein
uptake of ^125 I-ribonuclease by BHK cells (BHK cells): highest rate of uptake

B3: folate-labeled RNase: Bovine ribonuclease labeled with fluorescein isothiocyanate and further labeled with folate (conjugate, UniProt P61823 27-150, looked up)
Ribonuclease pancreatic: B1 Ribonuclease pancreatic
modifications: fluorescein and folate conjugated
internal fluorescence (confocal microscope) (KB cells [9]): Only the folate-labeled samples displayed any internal fluorescence | cell fluorescence (fluorescence microscope) [10]: found to fluoresce
